From patent US4562191A (priority 1983, dated 1985) come the findings set out here.

“And” between values parts separate entries of the source, which are not always exact repeats. Equal values may be shown once.

The test system of the experiment is Male CD-1 albino mice. Set-up: species or system mouse (CD-1 albino). The note with it: mouse, in vivo.

Consider `CC(=O)Oc1ccccc1C(=O)O` [Acetyl-salicylic acid, acetylsalicylic acid], for which the “Mean number of contortions ± S.D.” value is on record as 13.5 ± 11.1 and the “No. of animals exhibiting contortions out of total” value is 4/6.
On the same counts, the results for `CCC(=O)O[C@](Cc1ccccc1)(c1ccccc1)[C@H](C)CN(C)C` [D-propoxyphene] are 2.5 ± 2.1 and 2/6.
Turning to `CCCCC1C(=O)N(c2ccccc2)N(c2ccccc2)C1=O` [Phenylbutazone], the “No. of animals exhibiting contortions out of total” value was 3/6 and 5/6.
